Experimental findings from patent US10959428B2, “Hematophagous arthropod repellent composition” (WOOJUNG BIO INC., priority 2017, dated 2021) are described below.

The test system of assay [1] is adult Aedes albopicus. Nature of the assay: cage-in-arm test, repellency and CPT. The assay is classed as in vivo, Aedes albopictus. To be noted: for CPT: 4 mg, adult Aedes albopicus. The method, then:
(§1) For determining the repellency of prepared samples against adults of Aedes aegypti and Aedes albopicus, a cage-in-arm test was carried out as a method for exposure to skin. Namely, on a back of the hand of a rubber glove, a hole with diameter of 5 cm was created, and, onto an exposed back of the testees, various samples prepared by dissolution in 100 μl of ethanol were applied, and then the skin test was carried out. The testees were healthy males between the ages of 21 and 40. The control group was treated with 100 μl of ethanol only. Female adults (5 to 8 day old) of Aedes aegypti or Aedes albopicus (250 to 300 mosquitoes) were added to a cage for growing adult mosquitoes (25×25×25 cm^3), and adapted to the indoor conditions for 12 to 24 hours before starting the test. When the upper arm of the control group is exposed for 1 minute and at least 6 mosquitoes sit on the upper arm or show a bloodsucking behavior, it was determined as sufficient biting pressure, and then the repellency test was carried out. With an interval of 30 minutes, by exposing the upper arm, which has been treated with the above composition, for 3 minutes, and, when the adult mosquito sits on the arm for 2 seconds or longer or at least two mosquitoes showing the behavior of mouth injection to skin or direct bloodsucking are found from consecutive tests, the test was stopped. The time period between the time point with initial treatment of a material and the time point at which 2 or more mosquitoes continuously sit on the treatment area or show the bloodsucking behavior was defined as complete protection time (CPT). Furthermore, for obtaining the repellency with regard to concentration, exposure was made for a constant time period regardless of the above and the repellency was calculated by using the following formula. Accordingly, the effect was compared among each test samples. All tests were carried out in triplicate. Repellency %=(Number of insects showing bloodsucking behavior in non-treatment group−Number of insects showing bloodsucking behavior in treatment group)/Number of insects showing bloodsucking behavior in non-treatment group)×100 <Tick Repellency>
For reference, comparison of the mosquito repellency was made by using clove oil as a natural positive control group and DEET as a synthetic positive control group.
To determine the repellency of plant essential oil alone against adult Aedes albopicus and nymphs of Haemaphysalis longicornis, the cage-in-arm test and finger-tip method were carried out, in the same manner as Examples 1-2 and 1-3, with each of 16 kinds of plant essential oil of Table 4.

Assay [2] concerns adult Aedes aegypti. The experiment in a line: cage-in-arm test, complete protection time (CPT). The assay is classed as in vivo. To be noted: 4 mg. On the procedure: as §1, with “With an interval of 30 minutes, by exposing the upper arm, which has been treated with the above composition, for 3 minutes, and, when the adult mosquito sits on the arm for 2 seconds or longer or at least two mosquitoes showing the behavior of mouth injection to skin or direct bloodsucking are found from consecutive tests, the test was stopped.” left out

`C=CCc1ccc(O)c(OC)c1` [Eugenol (clove), Eugenol]: in assay [1], the CPT was 10 min.
Take `CCN(CC)C(=O)c1cccc(C)c1` [DEET, N,N-diethyl-m-toluamide]: the “Repellency (mean ± SE, %)” value is 77 ± 5.8% in assay [1] (0.03 mg/cm^2, 10 minutes); 67 ± 3.3% in assay [1] (0.03 mg/cm^2, 30 minutes); 69 ± 6.9% in assay [1] (0.03 mg/cm^2, 60 minutes); 19 ± 5.2% in assay [1] (0.03 mg/cm^2, 90 minutes); 100 ± 0% in assay [1] (0.10 mg/cm^2, 10 minutes); 96 ± 2.6% in assay [1] (0.10 mg/cm^2, 30 minutes). Also, the “Repellency (mean ± SE, %)” value is reported as 86 ± 4.2% in assay [1] (0.10 mg/cm^2, 60 minutes); 83 ± 4.3% in assay [1] (0.10 mg/cm^2, 90 minutes); 82 ± 9.5% in assay [1] (0.10 mg/cm^2, 120 minutes); 57 ± 5.2% in assay [1] (0.10 mg/cm^2, 150 minutes); 27 ± 3.8% in assay [1] (0.10 mg/cm^2, 180 minutes); 100 ± 0% in assay [1] (0.20 mg/cm^2, 10 minutes). For the same compound, the “Repellency (mean ± SE, %)” value worked out at 100 ± 0% in assay [1] (0.20 mg/cm^2, 30 minutes); 100 ± 0% in assay [1] (0.20 mg/cm^2, 60 minutes); 100 ± 0% in assay [1] (0.20 mg/cm^2, 90 minutes); 95 ± 3.3% in assay [1] (0.20 mg/cm^2, 120 minutes); 96 ± 1.2% in assay [1] (0.20 mg/cm^2, 150 minutes); 85 ± 3.0% in assay [1] (0.20 mg/cm^2, 180 minutes). Also, the “Repellency (mean ± SE, %)” value in assay [1] (0.25 mg/cm^2, 10 minutes) is recorded as 100 ± 0%; in assay [1] (0.25 mg/cm^2, 30 minutes) it was 100 ± 0%; in assay [1] (0.25 mg/cm^2, 60 minutes) it was 100 ± 0%; in assay [1] (0.25 mg/cm^2, 90 minutes), 100 ± 0%; in assay [1] (0.25 mg/cm^2, 120 minutes), 100 ± 0%; in assay [1] (0.25 mg/cm^2, 150 minutes), 100 ± 0%. Moreover, in assay [1] (0.25 mg/cm^2, 180 minutes), the “Repellency (mean ± SE, %)” value was determined as 84 ± 4.3%. Also, the CPT in assay [1], in assay [2] (adult Aedes aegypti) and in assay [2] (adult Aedes aegypti (Table 6)) was 90 min throughout.
In assay [2] (adult Aedes aegypti), vanillin isobutyrate gave a CPT of 45 min.
`COc1cc(C=O)ccc1OCc1ccccc1` [4-Benzyloxy-3-methoxybenzaldehyde, 4-benzyloxy-3-methoxybenzaldehyde] showed a CPT in assay [2] (adult Aedes aegypti) of 22 min.
In turn, `C=CCc1ccc(O)c(OC)c1` [Eugenol, eugenol, reference compound] gave a CPT in assay [2] (adult Aedes aegypti) of 10 min.
In turn, `COc1cc(CN)ccc1O.Cl` [4-hydroxy-3-methoxybenzylamine hydrochloride] came in with a CPT in assay [2] (adult Aedes aegypti) of 10 min.
As for `COc1cc(C=O)ccc1OC(=O)OC(C)(C)C` [tert-butyl 4-formyl-2-methoxyphenyl carbonate], the CPT in assay [2] (adult Aedes aegypti) amounted to 10 min.
For the compound `COc1cc(C=O)ccc1O` [Vanillin], the CPT in assay [2] (adult Aedes aegypti) was 30 min.
In the case of `COc1cc(CCC(C)=O)ccc1O` [Vanillyl acetone, vanillyl acetone], the CPT in assay [2] (adult Aedes aegypti) worked out at 10 min.
